Tested on: Corticium sasakii
Experiment: Activity against sheath blight on rice caused by Corticium sasakii (protective spray on potted rice plants)
Type: in vivo
Conditions: individual active compound, rice cultivar Tai-Nong 67, evaluated after 11 days, untreated control 90% infection
Protocol: 1% by weight of the emulsifier Uniperol® EL (wetting agent having emulsifying and dispersing action based on ethoxylated alkylphenols) was added to this solution, and the solution was diluted with water to the desired concentration.
Use example—Activity against sheath blight on rice caused by Corticium sasakii
The next day, oat grains infected with Corticium sasakii were placed into the pots (in each case 5 grains per pot). The plants were then placed in a chamber at 26° C. and maximum atmospheric humidity.
Evaluation is carried out by determining the infected leaf areas in percent. These percentages were converted into efficacies.
The efficacy (E) is calculated as follows using Abbot's formula: E=(1−α/β)·100 • α corresponds to the fungicidal infection of the treated plants in % and • β corresponds to the fungicidal infection of the untreated (control) plants in %
An efficacy of 0 means that the infection level of the treated plants corresponds to that of the untreated control plants; an efficacy of 100 means that the treated plants are not infected.

Compound | Efficacy in % of the untreated control (4 ppm in the spray liquor) | Efficacy in % of the untreated control (1 ppm in the spray liquor) | Efficacy in % of the untreated control (16 ppm in the spray liquor)
CC1CCN(c2c(-c3c(F)cc(F)cc3F)c(Cl)nc3ncnn23)CC1 [I, 5-chloro-7-(4-methylpiperidin-1-yl)-6-(2,4,6-trifluorophenyl)-[1,2,4]tri-azolo[1,5-a]pyrimidine] | 33% |  | 
zinc ammoniate-ethylenebis(dithiocarbamate) [II.3] |  | 0% | 22%
CN(C)C(=S)SSC(=S)N(C)C [II.5, bis(dimethylthiocarbamoyl)disulfide] |  | 0% | 0%
manganese-ethylenebis(dithiocarbamate) [II.2] |  | 0% | 11%
CC(Nc1c(-c2c(F)cc(F)cc2F)c(Cl)nc2ncnn12)C(F)(F)F (centres unmarked) [B] | 67% |  | 
manganese-ethylenebis(dithiocarbamate)zinc complex [II.1] |  | 0% | 11%
CC1CCN(c2c(-c3c(F)cccc3Cl)c(Cl)nc3ncnn23)CC1 [A] | 0% |  | 

— patent publication US20070082916A1, “Fungicidal mixtures for controlling rice pathogens” (BASF AKTIENGESEELSCHAFT, priority 2003, published 2007)
